Test [1] concerns rats following ligation of spinal nerves. To be noted: cited from earlier work.
Test [2] concerns acute and chronic pain from chemical, mechanical, and thermal pain stimuli. The following applies: animal studies; cited from earlier work.
Test [3] concerns the target T1, human CB2 receptor (Homo sapiens, UniProt P34972). In words: PathHunter β-arrestin assay, CB2.
Test [4] addresses T2, hCB1 (Homo sapiens, UniProt P21554). In words: HTRF assay for direct cAMP measurement, CB1. It is filed as cell-based. Details: 93-0164 (CHO-K1 EA-Arrestin parental line); host or cells: CHO-K1 EA-Arrestin, clone #3.
From the text: Compounds were also screened for agonists and inverse agonists of the CB1 receptor (e.g., human CB1 receptor) using HTRF® assay for direct cAMP measurement (Gabriel et al., ASSAY and Drug Development Technologies, 1:291-303, 2003) in recombinant CHO-K1 cells stably transfected with the CB1 receptor. […] An agonist of the CB1 receptor was detected in the HTRF® assay for direct cAMP measurement as a compound which decreased cAMP concentration. An inverse agonist of the CB1 receptor was detected in the HTRF® assay for direct cAMP measurement as a compound which increased cAMP concentration. The HTRF® assay also was used to determine EC50 values for CB1 receptor agonists and inverse agonists.
Principle of the assay: The HTRF® assay kit was purchased from Cisbio-US, Inc. (Bedford, MA; Catalog #62AM4PEC). The HTRF® assay supported by the kit is a competitive immunoassay between endogenous cAMP produced by the CHO-K1 cells and tracer cAMP labeled with the dye d2. The tracer binding is visualized by a monoclonal anti-cAMP antibody labeled with Cryptate. The specific signal (i.e., fluorescence resonance energy transfer, FRET) is inversely proportional to the concentration of unlabeled cAMP in the standard or sample.
The fluorescence ratio of the samples (test compound or compound buffer) was calculated and used to deduce respective cAMP concentrations by reference to the cAMP standard curve. […]
Test [5] has as its target T1, human CB2 receptor. In words: HTRF assay for direct cAMP measurement, CB2. Format: cell-based. On the set-up: 93-0164 (CHO-K1 EA-Arrestin parental line); host or cells: CHO-K1 EA-Arrestin, clone #61. On the technique in general: Time-resolved FRET reads energy transfer from a long-lived donor to a nearby acceptor.
The target in test [6] is T2, hCB1. Put plainly: PathHunter β-arrestin assay, CB1.
The subject of test [7] is male Sprague-Dawley rats, STZ-induced PDPN. Put plainly: Streptozotocin-induced painful diabetic peripheral neuropathy (PDPN) model. It is filed as in vivo, rat. The following applies: 10 mg/kg orally in 0.5% methylcellulose; 1, 4 and 6 hours post-dosing; FIG. 9, FIG. 10. As to the method: Male Sprague-Dawley rats were injected intraperitoneally with 50 mg/kg of streptozotocin (STZ) in sodium citrate buffer. 10% sucrose water was provided ad libitum for the first 48 hours post-STZ followed by regular drinking water. Rats were monitored once weekly for blood glucose levels and body weights. Development of tactile allodynia over time was analyzed using Von Frey filaments and a 50% withdrawal threshold was determined using Dixon's up-down procedure. […] Tactile allodynia was evaluated at 1, 4 and 6 hours post-dosing.

The structures appear in SMILES notation.

T2 sequence (P21554 whole entry): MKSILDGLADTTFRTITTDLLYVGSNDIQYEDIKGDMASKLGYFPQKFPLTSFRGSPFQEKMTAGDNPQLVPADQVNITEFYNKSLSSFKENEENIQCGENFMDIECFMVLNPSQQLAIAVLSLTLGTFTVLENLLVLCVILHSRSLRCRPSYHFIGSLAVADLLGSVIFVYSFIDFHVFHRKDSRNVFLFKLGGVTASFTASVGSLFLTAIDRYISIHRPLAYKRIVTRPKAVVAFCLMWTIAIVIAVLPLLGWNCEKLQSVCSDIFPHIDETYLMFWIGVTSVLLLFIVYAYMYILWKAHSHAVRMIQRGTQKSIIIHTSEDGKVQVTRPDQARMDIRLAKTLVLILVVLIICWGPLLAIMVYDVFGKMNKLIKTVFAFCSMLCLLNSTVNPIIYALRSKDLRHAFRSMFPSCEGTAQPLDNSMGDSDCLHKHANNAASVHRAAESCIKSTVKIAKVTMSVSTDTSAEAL
T1 sequence (P34972 whole entry): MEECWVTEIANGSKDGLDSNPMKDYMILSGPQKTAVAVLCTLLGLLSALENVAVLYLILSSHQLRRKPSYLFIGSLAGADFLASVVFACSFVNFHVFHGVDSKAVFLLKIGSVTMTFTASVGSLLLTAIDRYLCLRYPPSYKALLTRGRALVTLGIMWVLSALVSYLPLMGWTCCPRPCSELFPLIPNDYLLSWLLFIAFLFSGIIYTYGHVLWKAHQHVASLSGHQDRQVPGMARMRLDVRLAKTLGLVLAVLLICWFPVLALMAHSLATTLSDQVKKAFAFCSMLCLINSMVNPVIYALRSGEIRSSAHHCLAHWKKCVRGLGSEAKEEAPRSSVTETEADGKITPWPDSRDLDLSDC

For the compound `COc1ccc(C(=O)c2c(C)n(CCN3CCOCC3)c3cc(I)ccc23)cc1` [AM630], the “Effect on the reversal of hypersensitivity by AM1241” value in test [1] is listed as “inhibited”.

Turning to `CCCCCCC(C)(C)c1ccc([C@@H]2C[C@H](O)CC[C@H]2CCCO)c(O)c1` [CP55,940], the “Efficacy against acute and chronic pain” value in test [2] was “effective against acute and chronic pain”.

As for `CC(C)(CO)NC(=O)c1nn(-c2ccc(Cl)cn2)c2c1C[C@H]1C[C@@H]21` [Compound 151, (1aR,5aR)-2-(5-Chloro-pyridin-2-yl)-1a,2,5,5a-tetrahydro-1H-2,3-diaza-cyclopropa[a]pentalene-4-carboxylic acid (2-hydroxy-1,1-dimethyl-ethyl)-amide], the EC50 on human CB2 receptor [3] turned out to be 92.1 nM; on hCB1 [4], 72500 nM; at human CB2 receptor [5] it was 3.83 nM.

On to `CC(C)(C)NC(=O)c1nn(-c2cnccn2)c2c1C[C@H]1C[C@@H]21` [Compound 593, (1aR,5aR)-2-Pyrazin-2-yl-1a,2,5,5a-tetrahydro-1H-2,3-diaza-cyclopropa[a]pentalene-4-carboxylic acid tert-butylamide], for which the EC50 at human CB2 receptor [3] stood at 34.6 nM; at hCB1 [6] it was 1330 nM; on human CB2 receptor [5] it was 7.15 nM.

`CC(C)(CO)NC(=O)c1nn(-c2cc(C#N)ccn2)c2c1C[C@H]1C[C@@H]21` [Compound 644, (1aR,5aR)-2-(4-Cyano-pyridin-2-yl)-1a,2,5,5a-tetrahydro-1H-2,3-diaza-cyclopropa[a]pentalene-4-carboxylic acid (2-hydroxy-1,1-dimethyl-ethyl)-amide]: the values for the EC50 on human CB2 receptor [3], on hCB1 [6] and at human CB2 receptor [5] were 4.69 nM, 4470 nM and 0.7 nM, respectively.

Consider `CNC(=O)[C@@H](NC(=O)c1nn(-c2c[n+]([O-])ccn2)c2c1C[C@H]1C[C@@H]21)C(C)(C)C` [Compound 704, (1aR,5aR)-2-(4-Oxy-pyrazin-2-yl)-1a,2,5,5a-tetrahydro-1H-2,3-diaza-cyclopropa[a]pentalene-4-carboxylic acid ((S)-2,2-dimethyl-1-methylcarbamoyl-propyl)-amide], for which the EC50 turned out to be 0.8 nM on human CB2 receptor [3], 228 nM at hCB1 [6] and 0.2 nM on human CB2 receptor [5].

With `CCNC(=O)[C@@H](NC(=O)c1nn(-c2c[n+]([O-])ccn2)c2c1C[C@H]1C[C@@H]21)C(C)(C)C` [Compound 728, (1aR,5aR)-2-(4-Oxy-pyrazin-2-yl)-1a,2,5,5a-tetrahydro-1H-2,3-diaza-cyclopropa[a]pentalene-4-carboxylic acid ((S)-1-ethylcarbamoyl-2,2-dimethyl-propyl)-amide], the EC50 on human CB2 receptor [3] is 1.1 nM; at hCB1 [6] it was 251 nM.

`COC(=O)[C@@H](NC(=O)c1nn(-c2c[n+]([O-])ccn2)c2c1C[C@H]1C[C@@H]21)C(C)(C)C` [Compound 746, (S)-3,3-Dimethyl-2-{[(1aR,5aR)-2-(4-oxy-pyrazin-2-yl)-1a,2,5,5a-tetrahydro-1H-2,3-diaza-cyclopropa[a]pentalene-4-carbonyl]-amino}-butyric acid methyl ester]: the EC50 at human CB2 receptor [3] worked out at 0.7 nM; at hCB1 [6], 142 nM.

As to `O=C(N[C@H](CO)C1CCOCC1)c1nn(-c2c[n+]([O-])ccn2)c2c1C[C@H]1C[C@@H]21` [Compound 841, (1aR,5aR)-2-(4-Oxy-pyrazin-2-yl)-1a,2,5,5a-tetrahydro-1H-2,3-diaza-cyclopropa[a]pentalene-4-carboxylic acid [(S)-2-hydroxy-1-(tetrahydro-pyran-4-yl)-ethyl]-amide], the EC50 on human CB2 receptor [3] was 17.5 nM; on hCB1 [6] it was 1140 nM; at human CB2 receptor [5], 1.4 nM.

Turning to `O=C(NC(CO)(CF)CF)c1nn(-c2cc(Cl)ccn2)c2c1C[C@@H]1C[C@H]21` [Compound 889, (1aS,5aS)-2-(4-Chloro-pyridin-2-yl)-1a,2,5,5a-tetrahydro-1H-2,3-diaza-cyclopropa[a]pentalene-4-carboxylic acid (2-fluoro-1-fluoromethyl-1-hydroxymethyl-ethyl)-amide], the EC50 is 8.6 nM at human CB2 receptor [3] and 4070 nM at hCB1 [6].

With `N#Cc1ccnc(-n2nc(C(=O)N[C@H](CO)CC(F)(F)F)c3c2[C@H]2C[C@H]2C3)c1` [Compound 891, (1aS,5aS)-2-(4-Cyano-pyridin-2-yl)-1a,2,5,5a-tetrahydro-1H-2,3-diaza-cyclopropa[a]pentalene-4-carboxylic acid ((S)-3,3,3-trifluoro-1-hydroxymethyl-propyl)-amide], the half-maximal effective concentration (EC50) on human CB2 receptor [3] was 16.2 nM; at hCB1 [6], 11800 nM.

Turning to `CC(C)(CF)NC(=O)c1nn(-c2cc(Cl)ccn2)c2c1C[C@@H]1C[C@H]21` [Compound 897, (1aS,5aS)-2-(4-Chloro-pyridin-2-yl)-1a,2,5,5a-tetrahydro-1H-2,3-diaza-cyclopropa[a]pentalene-4-carboxylic acid (2-fluoro-1,1-dimethyl-ethyl)-amide], the figures for the EC50 at human CB2 receptor [3] and at hCB1 [6] were 3.79 nM and 951 nM, respectively.

Consider `CC(C)(C)[C@@H](CF)NC(=O)c1nn(-c2c[n+]([O-])ccn2)c2c1C[C@H]1C[C@@H]21` [Compound 918, (1aR,5aR)-2-(4-Oxy-pyrazin-2-yl)-1a,2,5,5a-tetrahydro-1H-2,3-diaza-cyclopropa[a]pentalene-4-carboxylic acid ((S)-1-fluoromethyl-2,2-dimethyl-propyl)-amide], for which the EC50 came out at 1.01 nM at human CB2 receptor [3] and 437 nM at hCB1 [6].

Consider `CC(C)(NC(=O)c1nn(-c2c[n+]([O-])ccn2)c2c1C[C@@H]1C[C@H]21)C(F)(F)F` [Compound 919, (1aS,5aS)-2-(4-Oxy-pyrazin-2-yl)-1a,2,5,5a-tetrahydro-1H-2,3-diaza-cyclopropa[a]pentalene-4-carboxylic acid (2,2,2-trifluoro-1,1-dimethyl-ethyl)-amide], for which the “Analgesic efficacy (tactile allodynia, 50% withdrawal threshold)” value in test [7] is “robust and sustained analgesic efficacy over 6 hours”. In addition, the EC50 on human CB2 receptor [3] is 2.35 nM; at human CB2 receptor [5] it was 0.2 nM.

Consider `O=C(NC1(C(F)(F)F)CCC1)c1nn(-c2cnccn2)c2c1C[C@@H]1C[C@H]21` [Compound 926, (1aS,5aS)-2-Pyrazin-2-yl-1a,2,5,5a-tetrahydro-1H-2,3-diaza-cyclopropa[a]pentalene-4-carboxylic acid (1-trifluoromethyl-cyclobutyl)-amide], for which the EC50 on human CB2 receptor [3] came to 4.43 nM; on human CB2 receptor [5], 0.2 nM.

Consider `COc1ccc2c(c1)c(CCN1CCOCC1)c(C)n2C(=O)c1cccc(Cl)c1Cl` [GW405833], for which the “Hypersensitivity to mechanical stimuli” value in test [1] (administered systemically) was “significantly reverses hypersensitivity to mechanical stimuli”.

In the case of `CCCCCc1cc(O)c2c(c1)OC(C)(C)[C@@H]1CCC(C)=C[C@@H]21` [THC], in test [2], the “Efficacy against acute and chronic pain” value was “effective against acute and chronic pain”.

In the case of `Cc1c(C(=O)c2cccc3ccccc23)c2cccc3c2n1[C@H](CN1CCOCC1)CO3` [WIN 55212-2], the “Efficacy against acute and chronic pain” value in test [2] was “effective against acute and chronic pain”.

On to `CCCCC/C=C\C/C=C\C/C=C\C/C=C\CCCC(=O)NCCO` [anandamide], for which the “Efficacy against acute and chronic pain” value in test [2] is “effective against acute and chronic pain”.

In general, EC50 refers to the concentration giving half of the maximal effect.

These data come from patent US12201633B2, “Compounds and methods for treatment of visceral pain” (Arena Pharmaceuticals, Inc., priority 2017, dated 2025).
